Measured values as given in patent US20110130380A1, “Heteroaryl Kinase Inhibitors” (priority 2009, published 2011).

biological target: Cdk9/cyclinT1 (Homo sapiens, UniProt P50750); assay: Cdk9/cyclinT1 IMAP Protocol (fluorescence polarization kinase assay); conditions: Cdk9_cyclinT1_IC50, Table V; generated using one of the two Cdk9/cyclinT1 assays (IMAP or Alpha Screen), not stated which; ATP 6 uM
Sequence (P50750 whole entry): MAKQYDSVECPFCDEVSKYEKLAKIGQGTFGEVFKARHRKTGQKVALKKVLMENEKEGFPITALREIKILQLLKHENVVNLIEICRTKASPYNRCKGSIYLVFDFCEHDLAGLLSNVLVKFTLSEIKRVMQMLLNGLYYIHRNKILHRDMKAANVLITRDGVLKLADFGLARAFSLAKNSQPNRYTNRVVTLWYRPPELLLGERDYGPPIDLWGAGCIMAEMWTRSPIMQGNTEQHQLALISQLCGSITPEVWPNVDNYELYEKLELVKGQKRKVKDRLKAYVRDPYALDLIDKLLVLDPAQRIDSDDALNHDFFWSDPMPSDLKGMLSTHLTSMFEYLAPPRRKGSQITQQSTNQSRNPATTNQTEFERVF
Sequence (O60563 whole entry partner): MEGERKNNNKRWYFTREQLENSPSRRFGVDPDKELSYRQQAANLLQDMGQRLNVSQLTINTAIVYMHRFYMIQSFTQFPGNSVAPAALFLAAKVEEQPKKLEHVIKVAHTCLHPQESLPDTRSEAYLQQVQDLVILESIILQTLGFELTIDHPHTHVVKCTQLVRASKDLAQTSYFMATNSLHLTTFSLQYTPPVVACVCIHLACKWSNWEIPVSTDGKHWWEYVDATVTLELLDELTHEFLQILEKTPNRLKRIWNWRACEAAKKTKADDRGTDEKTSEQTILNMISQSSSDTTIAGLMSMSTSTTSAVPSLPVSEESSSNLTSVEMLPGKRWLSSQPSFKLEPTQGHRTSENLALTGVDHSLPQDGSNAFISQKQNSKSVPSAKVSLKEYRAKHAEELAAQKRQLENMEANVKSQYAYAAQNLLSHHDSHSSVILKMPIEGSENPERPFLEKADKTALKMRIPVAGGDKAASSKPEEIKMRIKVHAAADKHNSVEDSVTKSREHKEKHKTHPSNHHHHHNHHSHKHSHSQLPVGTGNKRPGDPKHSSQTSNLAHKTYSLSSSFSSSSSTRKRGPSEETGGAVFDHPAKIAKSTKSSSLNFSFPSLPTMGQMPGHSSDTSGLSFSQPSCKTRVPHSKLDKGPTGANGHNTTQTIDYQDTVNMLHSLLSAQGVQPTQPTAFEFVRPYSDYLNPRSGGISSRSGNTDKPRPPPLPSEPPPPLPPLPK

Row | IC50 [nM] | Compound
1 | < 8 | COC(=O)N1CCC[C@H](C(=O)Nc2cc(-c3nc(NCC4CCOCC4)ccc3Cl)c(Cl)cn2)C1 [Example 105, (S)-3-{3,5′-Dichloro-6-[(tetrahydro-pyran-4-ylmethyl)-amino]-[2,4′]bipyridinyl-2′-ylcarbamoyl}-piperidine-1-carboxylic acid methyl ester]
2 | 1 | CC1(C)CC(CNc2nc(-c3cc(NC(=O)[C@@H]4CCCNC4)ncc3Cl)ccc2F)CCO1 (stereo partly drawn) [Example 198, (R)-Piperidine-3-carboxylic acid {5′-chloro-6-[(2,2-dimethyl-tetrahydro-pyran-4-ylmethyl)-amino]-5-fluoro-[2,4′]bipyridinyl-2′-yl}-amide]
3 | < 8 | O=C(Nc1cc(-c2cccc(NCc3cccc(F)c3)n2)c(Cl)cn1)[C@@H]1CCCNC1 [Example 1, (R)-Piperidine-3-carboxylic acid [5′-chloro-6-(3-fluoro-benzylamino)-[2,4+]bipyridinyl-2′-yl]-amide]
4 | 14 | O=C(Nc1cc(-c2cccc(NCC3CCOCC3)n2)c(Cl)cn1)C1CNC1 [Example 119, Azetidine-3-carboxylic acid {5′-chloro-6-[(tetrahydro-pyran-4-ylmethyl)-amino]-[2,4′]bipyridinyl-2′-yl}-amide]
5 | 230 | O=C(Nc1cc(-c2cccc(NCC3CCOCC3)n2)c(Cl)cn1)C1(F)CCCNC1 (single isomer, unassigned) [Example 117]
6 | 102 | CN(C)c1cccc(-c2cc(NC(=O)[C@@H]3CCCNC3)ncc2Cl)n1 [Example 36, (R)-Piperidine-3-carboxylic acid (5′-chloro-6-dimethylamino-[2,4′]bipyridinyl-2′-yl)-amide]
7 | 1 | CC(C)S(=O)(=O)N1CCC[C@H](C(=O)Nc2cc(-c3nc(NC[C@H]4CCOC(C)(C)C4)ccc3Cl)c(Cl)cn2)C1 (single isomer, unassigned) [Example 173]
8 | < 8 | O=C(Nc1cc(-c2ccc(Cl)c(NCC3CCOCC3)n2)c(Cl)cn1)[C@@H]1CCCNC1 [Example 74, (R)-Piperidine-3-carboxylic acid {5,5′-dichloro-6-[(tetrahydro-pyran-4-ylmethyl)-amino]-[2,4′]bipyridinyl-2′-yl}-amide]
9 | 5 | O=C(Nc1cc(-c2cccc(NCC3CCOCC3)n2)c(Cl)cn1)[C@H]1CNC[C@@H](F)C1 [Example 177, (3R,5S)-5-Fluoro-piperidine-3-carboxylic acid {5′-chloro-6-[(tetrahydro-pyran-4-ylmethyl)-amino]-[2,4′]bipyridinyl-2′-yl}-amide]
10 | 3 | COC1(CNc2nc(-c3cc(NC(=O)[C@@H]4CCCNC4)ncc3Cl)ccc2F)CCOCC1 [Example 248, (R)-Piperidine-3-carboxylic acid {5′-chloro-5-fluoro-6-[(4-methoxy-tetrahydro-pyran-4-ylmethyl)-amino]-[2,4′]bipyridinyl-2′-yl}-amide]
11 | 1 | CC1(C)COCC(CNc2nc(-c3cc(NC(=O)[C@@H]4CCCNC4)ncc3Cl)ccc2F)O1 (stereo partly drawn) [Example 254, (R)-Piperidine-3-carboxylic acid {5′-chloro-6-[(6,6-dimethyl-[1,4]dioxan-2-ylmethyl)-amino]-5-fluoro-[2,4′]bipyridinyl-2′-yl}-amide]
12 | 27 | O=C(COc1ccc(Cl)cn1)Nc1cc(-c2cccc(NCC3CCOCC3)n2)c(Cl)cn1 [Example 103, 2-(5-Chloro-pyridin-2-yloxy)-N-{5′-chloro-6-[(tetrahydro-pyran-4-ylmethyl)-amino]-[2,4′]bipyridinyl-2′-yl}-acetamide]
13 | 7 | CC[C@H]1CC[C@@H](C(=O)Nc2cc(-c3cccc(NCC4CCOCC4)n3)c(Cl)cn2)CN1 [Example 247, (3R,6S)-6-Ethyl-piperidine-3-carboxylic acid {5′-chloro-6-[(tetrahydro-pyran-4-ylmethyl)-amino]-[2,4′]bipyridinyl-2′-yl}-amide]
14 | 11 | O=C(Nc1cc(-c2cccc(NCC3CCOCC3)n2)c(Cl)cn1)[C@H]1CCCO1 [Example 68, (R)-Tetrahydro-furan-2-carboxylic acid {5′-chloro-6-[(tetrahydro-pyran-4-ylmethyl)-amino]-[2,4′]bipyridinyl-2′-yl}-amide]
15 | 1 | C[C@@H]1CC[C@@H](C(=O)Nc2cc(-c3cccc(NC[C@H]4CCOC(C)(C)C4)n3)c(Cl)cn2)CN1 (single isomer, unassigned) [Example 244]
16 | 57 | O=C(Nc1cc(-c2cccc(N3CCC(O)CC3)n2)c(Cl)cn1)[C@@H]1CCCNC1 [Example 43, (R)-Piperidine-3-carboxylic acid (5″- chloro-4-hydroxy-3,4,5,6-tetrahydro-2H-[1,2′;6′,4″]terpyridin-2″- yl)-amide]
17 | < 8 | O=C1CCC(C(=O)Nc2cc(-c3cccc(NCC4CCOCC4)n3)c(Cl)cn2)CN1 (stereo not shown) [Example 61, 6-Oxo-piperidine-3-carboxylic acid {5′-chloro-6-[(tetrahydro-pyran-4-ylmethyl)-amino]-[2,4′]bipyridinyl-2′-yl}-amide]
18 | 116 | O=C(Nc1cc(-c2cccc(NCC3CCOCC3)n2)c(Cl)cn1)[C@@H]1CCCN1 [Example 58, (S)-Pyrrolidine-2-carboxylic acid {5′-chloro-6-[(tetrahydro-pyran-4-ylmethyl)-amino]-[2,4′]bipyridinyl-2′-yl}-amide]
19 | 1 | O=C(Nc1cc(-c2ccc(F)c(NCC3CCOCC3)n2)c(Cl)cn1)C1CNCCOC1 (stereo not shown) [Example 201, [1,4]Oxazepane-6-carboxylic acid {5′-chloro-5-fluoro-6-[(tetrahydro-pyran-4-ylmethyl)-amino]-[2,4′]bipyridinyl-2′-yl}-amide]
20 | < 8 | CS(=O)(=O)N1CCC[C@H](C(=O)Nc2cc(-c3cccc(NCC4CCOCC4)n3)c(Cl)cn2)C1 [Example 91, (S)-1-Methanesulfonyl-piperidine-3-carboxylic acid {5′-chloro-6-[(tetrahydro-pyran-4-ylmethyl)-amino]-[2,4′]bipyridinyl-2′-yl}-amide]

same assay, conditions: Cdk9_cyclinT1_IC50, generated using one of the two Cdk9/cyclinT1 assays (IMAP or Alpha Screen), not specified per value; ATP 6 uM

Row | IC50 [nM] | Compound
21 | 627 | Cc1ccncc1-c1cc(NC(=O)[C@@H]2CCCNC2)ncc1Cl [Example 309, (R)-Piperidine-3-carboxylic acid (5′-chloro-4-methyl-[3,4′]bipyridinyl-2′-yl)-amide]
22 | < 8 | O=C(Nc1cc(-c2cc(NCC3CCOCC3)cnc2Cl)c(Cl)cn1)[C@@H]1CCCNC1 [Example 312, (R)-Piperidine-3-carboxylic acid {2,5′-dichloro-5-[(tetrahydro-pyran-4-ylmethyl)-amino]-[3,4′]bipyridinyl-2′-yl}-amide]
23 | < 8 | O=C(Nc1cc(-c2cncc(NCC3CCOCC3)c2)c(Cl)cn1)[C@@H]1CCCNC1 [Example 301, (R)-Piperidine-3-carboxylic acid {5′-chloro-5-[(tetrahydro-pyran-4-ylmethyl)-amino]-[3,4′]bipyridinyl-2′-yl}-amide]
24 | 4 | CC1(C)CC(CNc2cnc(Cl)c(-c3cc(NC(=O)[C@H]4CNCCO4)ncc3Cl)c2)CCO1 (stereo partly drawn) [Example 315, (R)-Morpholine-2-carboxylic acid {2,5′-dichloro-5-[(2,2-dimethyl-tetrahydro-pyran-4-ylmethyl)-amino]-[3,4′]bipyridinyl-2′-yl}-amide]
25 | 81 | CC(C)(C)OC(=O)N1CCC[C@@H](C(=O)Nc2cc(-c3cncc(NCC4CCOCC4)c3)c(Cl)cn2)C1 [Example 304, (R)-3-{5′-Chloro-5-[(tetrahydro-pyran-4-ylmethyl)-amino]-[3,4′]bipyridinyl-2′-ylcarbamoyl}-piperidine-1-carboxylic acid tert-butyl ester]
